According to publication PMC9640540, “An LH1–RC photocomplex from an extremophilic phototroph provides insight into origins of two photosynthesis proteins” (Communications Biology, 2022):

Target: T1, reaction center (RC) of the LH1–RC complex (Rhodopila globiformis, UniProt A0A2S6NEG7+A0A2S6NEP5)
T1 construct: gene CCS01_15140; native LH1-RC core complex purified from chromatophores (LDAO, then DDM); closed LH1 ring; with Reaction center protein H chain; Photosynthetic reaction center cytochrome c subunit
Assay: cryo-EM structure, […] Å
Format: binding

T1 sequence (A0A2S6NEG7 1-275): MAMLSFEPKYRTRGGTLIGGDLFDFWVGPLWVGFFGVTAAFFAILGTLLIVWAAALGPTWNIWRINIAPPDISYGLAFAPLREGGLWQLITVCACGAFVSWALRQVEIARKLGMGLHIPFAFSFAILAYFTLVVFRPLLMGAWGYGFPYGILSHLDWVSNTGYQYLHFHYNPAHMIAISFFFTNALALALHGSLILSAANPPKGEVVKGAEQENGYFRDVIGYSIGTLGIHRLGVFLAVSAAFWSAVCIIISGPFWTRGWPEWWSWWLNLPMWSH
T1 sequence (A0A2S6NEP5 1-326): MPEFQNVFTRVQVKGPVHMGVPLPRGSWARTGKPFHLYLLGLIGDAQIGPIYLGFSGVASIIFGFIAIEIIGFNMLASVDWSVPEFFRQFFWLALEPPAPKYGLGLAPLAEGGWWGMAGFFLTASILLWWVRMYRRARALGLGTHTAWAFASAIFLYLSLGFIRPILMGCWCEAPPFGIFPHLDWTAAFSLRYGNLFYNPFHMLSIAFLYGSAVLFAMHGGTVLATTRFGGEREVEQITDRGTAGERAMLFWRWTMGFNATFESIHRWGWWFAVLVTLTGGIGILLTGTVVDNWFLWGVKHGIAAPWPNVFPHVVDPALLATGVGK
T1 sequence (A0A2S6MZS1 1-258 partner): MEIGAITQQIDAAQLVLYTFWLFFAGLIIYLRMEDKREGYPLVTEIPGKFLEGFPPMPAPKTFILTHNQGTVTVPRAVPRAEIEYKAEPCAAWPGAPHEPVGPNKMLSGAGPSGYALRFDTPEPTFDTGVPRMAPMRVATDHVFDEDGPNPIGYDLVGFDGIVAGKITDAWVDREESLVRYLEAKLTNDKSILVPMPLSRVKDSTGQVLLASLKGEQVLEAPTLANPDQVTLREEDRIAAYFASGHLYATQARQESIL
T1 sequence (A0A2S6NEK5 1-344 partner): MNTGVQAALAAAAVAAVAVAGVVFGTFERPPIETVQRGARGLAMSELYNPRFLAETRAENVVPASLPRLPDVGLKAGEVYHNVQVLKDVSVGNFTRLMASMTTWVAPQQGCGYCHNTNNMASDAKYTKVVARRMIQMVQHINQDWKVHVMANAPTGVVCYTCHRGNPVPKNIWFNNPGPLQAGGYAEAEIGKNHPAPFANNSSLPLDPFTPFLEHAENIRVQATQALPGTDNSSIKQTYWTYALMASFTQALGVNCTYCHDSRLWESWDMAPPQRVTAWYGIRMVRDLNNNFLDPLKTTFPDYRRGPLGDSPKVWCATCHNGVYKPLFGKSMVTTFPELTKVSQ

## CC[C@H]1c2cc3[nH]c4c(c3C)C(=O)[C@H](C(=O)OC)c4c3nc(cc4[nH]c(cc(n2)[C@@H]1C)c(C(C)=O)c4C)[C@@H](C)[C@@H]3CCC(=O)OC/C=C(\C)CCC[C@H](C)CCC[C@H](C)CCCC(C)C [BPhe a]
  cryo-EM structure, 2.24 Å: BPhe a, magenta sticks
